Test results as given in ChEMBL document CHEMBL4184086, “Sinopestalotiollides A-D, cytotoxic diphenyl ether derivatives from plant endophytic fungus Pestalotiopsis palmarum” (Bioorg Med Chem Lett, 2018).

Assays:
Type in all cases: functional, cell-based
HCT-116 = assay: Cytotoxicity against human HCT116 cells by WST-8 assay
A549 = assay: Cytotoxicity against human A549 cells by WST-8 assay
HeLa = assay: Cytotoxicity against human HeLa cells by WST-8 assay

| Compound | IC50 (HCT-116) [µM] | IC50 (A549) [µM] | IC50 (HeLa) [µM] |
| --- | --- | --- | --- |
| COc1c(C(CO)C(C)C)ccc2c1C(=O)OCc1cc(C)cc(O)c1O2 (configuration not stated) | 18.5 | 36.1 | 14.7 |
| C=C(C)C(CO)c1ccc2c(c1OC)C(=O)OCc1cc(C)cc(O)c1O2 (configuration not stated) | 15.7 | 31.3 | 18.9 |
| COc1cccc2c1C(=O)c1c(O)c3c(c(O)c1C2=O)C[C@@](O)(C(=O)CO)C[C@@H]3O[C@H]1C[C@H](N)[C@H](O)[C@H](C)O1 [DOXORUBICIN] | 2.38 | – | 8.96 |
| COc1c(/C=C/C(C)(CO)OC)ccc2c1C(=O)OCc1cc(C)cc(O)c1O2 (configuration not stated) | 2.66 | 2.14 | 1.19 |
| C=C(C)C(O)Cc1ccc2c(c1OC)C(=O)OCc1cc(C)cc(O)c1O2 (configuration not stated) | 22.7 | 44.9 | 12.8 |
| COC1=CC(=O)OC(CO)C1 (configuration not stated) | 24.4 | 47.8 | 15.6 |
